Experiments:
Male Wistar rats [1] = assay: Montoya staircase test; type: in vivo, rat; conditions: mean±SEM
Method: (§1) Male Wistar rats (250 to 300 grams; Charles River, Montreal, Quebec) were divided into 4 groups: intracerebroventricular injections of Aβ(25-35) (BACHEM, Torrance, Calif.); endothelin injections into the right striatum; both Aβ(25-35) and striatal endothelin injections; and sham procedures. The Aβ(25-35) fragment was used to reduce the possibility of rapid coagulation and to allow diffusion of the peptide into the brain.
(§2) All rats were anesthetized using 40 mg/kg of pentobarbital (Somnotol; MTC Pharmaceuticals, Cambridge, Ontario) intraperitoneally. Body temperature was maintained at 37° C. Aβ(25-35) (50 nmol in 10 μL of saline) was injected bilaterally into the lateral ventricles. Aβ(25-35) was prepared according to established methods (Sigurdsson, et al. (1997) supra). Aβ(25-35) (50 nmol in 10 μL of saline at a rate of 1 μL/minute) was injected bilaterally into the lateral ventricles via a stainless-steel cannula (23-gauge; anterior/posterior −0.8, medial/lateral ±1.4, and dorsal/ventral −4.0 below dura). Two endothelin injections (6 pmol in 3 μL of saline), 1 mm apart, were made into the right striatum (Sigurdsson, et al. (1997) supra). Sham procedures involved all the surgical steps without injections of Aβ(25-35) or endothelin. After wound suture, all rats received […] of buprenorphine intramuscularly and were allowed to recover from surgery for 7 days.
For training (n=10 for each group), rats were placed into the Montoya staircase apparatus (Montoya, et al. (1991) supra) at the same time every day for 8 days (days −8 through −1) and were allowed to perform the test for 20 minutes. Rats were food-deprived for 1 day (day −9) before testing, as well as on day −8. On days −7 though −1, rats were fed 10 grams of their normal chow so that they maintained their body weight at ˜85%. Three NOYES LAB ANIMAL PRECISION FOOD PELLETS™ (Research Diets, Inc., New Brunswick, N.J.) were placed in each of the 14 wells (7 on each side). Pellets eaten were recorded from each well. Re-testing trials, which were performed 7 days after the surgical procedures (day 0), were performed for 8 days in the same way as the training trials (days 8 through 15).
Digital photographs were taken using a light microscope (Leitz Diaplan). An investigator was blinded to the identification of the rat sections while analysis was being performed. […] Also, relative optical density measurements and numbers of stained cells or accumulations were measured in entire brain areas for quantitative analysis and statistically analyzed with ANOVA and Tukey post hoc test with a significance level of P<0.05. […] The staircase data are expressed as the mean±SEM. […] Data are expressed as mean±SEM. […]

Male Wistar rats [2] = assay: Congo Red histochemistry of rat brain sections; type: in vivo; conditions: Aβ: lesions in fornix, anterior hippocampus, CA1 hippocampus; endothelin: infarct
Method: as §1
as §2, with “days. […]” for “days.”

Male Wistar rats [3] = assay: Immunohistochemistry of rat brain sections, grading scale of staining size and intensity; type: in vivo; set-up: key to NKκB(p65) immunostaining signal / COX-2 immunostaining signal / GFAP immunostaining signal / OX-6 immunostaining signal / APP immunostaining signal / Tau-2 immunostaining signal / TNFα immunostaining signal / Cas-3 immunostaining signal: n.s.: no positive staining; +: moderate immunostaining signal; ++: strong immunostaining signal; +++: strongest immunostaining signal
Method: (§3) All rats were anesthetized using 40 mg/kg of pentobarbital (Somnotol; MTC Pharmaceuticals, Cambridge, Ontario) intraperitoneally. Body temperature was maintained at 37° C. Aβ(25-35) (50 nmol in 10 μL of saline) was injected bilaterally into the lateral ventricles. Aβ(25-35) was prepared according to established methods (Sigurdsson, et al. (1997) supra). Aβ(25-35) (50 nmol in 10 μL of saline at a rate of 1 μL/minute) was injected bilaterally into the lateral ventricles via a stainless-steel cannula (23-gauge; anterior/posterior −0.8, medial/lateral ±1.4, and dorsal/ventral −4.0 below dura). Two endothelin injections (6 pmol in 3 μL of saline), 1 mm apart, were made into the right striatum (Sigurdsson, et al. (1997) supra). Sham procedures involved all the surgical steps without injections of Aβ(25-35) or endothelin. After wound suture, all rats received 40 mg/kg of buprenorphine intramuscularly and were allowed to recover from surgery for 7 days.
(§4) Twenty-one days after surgery, all animals were euthanized via pentobarbital overdose and perfused transaortically first with saline followed by 4% formaldehyde (pH 7.4). The brains were removed and cryoprotected in 30% sucrose for 36 hours at 4° C. Coronal sections (30 pm) were cut using a cryostat.
(§5) Free-floating sections from rat brains (n=5 for each group) were treated with 0.03% hydrogen peroxide and blocked with 3 mL of horse or rabbit serum (VECTASTAIN® Elite, Vector Laboratories, Burlingame, Calif.). The following primary antibodies were diluted in filtered phosphate-buffered saline: APPa4 mouse monoclonal (Chemicon International Inc, Temecula, Calif.; 1:1000), GFAP mouse monoclonal (Sigma-Aldrich, St Louis, Mo.; 1:1000), OX-6 mouse monoclonal (Serotec, Inc., Raleigh, N.C.; 1:1000), Tau-2 mouse monoclonal (Sigma-Aldrich, St Louis, Mo.; 1:10000), NFκB(p65) goat polyclonal (Santa Cruz Biotechnologies, Santa Cruz, Calif.; 1:1000), IL-1β goat polyclonal (Santa Cruz Biotechnologies, Santa Cruz, Calif.; 1:1000), and TNF-α-M18 goat polyclonal (Santa Cruz Biotechnologies, Santa Cruz, Calif.; 1:1000). APP-, Tau-2-, GFAP-, and OX-6-stained sections were incubated with 3 mL of horse biotinylated anti-mouse secondary antibody and horse serum. NFκB(p65), IL-1β, and TNF-α-stained sections were incubated with 3 mL of biotinylated rabbit anti-goat secondary antibody and rabbit serum. Sections were then incubated in 3 mL of avidin-biotin complex followed by 0.05% diaminobenzidine. Sections were washed, air-dried, cleared in xylene, and cover-slipped. Brains to be compared were processed at the same time using the same solutions to reduce variability in immunostaining caused by separate processing.
(§6) Digital photographs were taken using a light microscope (Leitz Diaplan). An investigator was blinded to the identification of the rat sections while analysis was being performed. All immunohistochemical data that were compared was processed at the same time to reduce any variation caused by differences of intensity. A grading scale was based on both observable size and intensity of staining (n=5 for each group). Also, relative optical density measurements and numbers of stained cells or accumulations were measured in entire brain areas for quantitative analysis and statistically analyzed with ANOVA and Tukey post hoc test with a significance level of P<0.05.

Male Wistar rats [4] = assay: Quantitative immunohistochemistry: relative optical density and numbers of stained cells or accumulations; type: in vivo, rat; conditions: for APP Accumulation / GFAP Intensity / OX6 Intensity: vehicle (not in brackets), mean ± SEM, n = 4
Method: as §3, §4, §5, §6

For `CC[C@H](C)[C@H](NC(=O)[C@H](CC(=O)O)NC(=O)[C@H](CC(C)C)NC(=O)[C@H](Cc1c[nH]cn1)NC(=O)[C@@H]1CSSC[C@H](N)C(=O)N[C@@H](CO)C(=O)N[C@H]2CSSC[C@H](NC(=O)[C@H](CCC(=O)O)NC(=O)[C@H](CCCCN)NC(=O)[C@H](CC(=O)O)NC(=O)[C@H](CCSC)NC(=O)[C@H](CC(C)C)NC(=O)[C@H](CO)NC(=O)[C@H](CO)NC2=O)C(=O)N[C@@H](C(C)C)C(=O)N[C@@H](Cc2ccc(O)cc2)C(=O)N[C@@H](Cc2ccccc2)C(=O)N1)C(=O)N[C@H](C(=O)N[C@@H](Cc1c[nH]c2ccccc12)C(=O)O)[C@@H](C)CC` [Endothelin], which “Staircase test performance, contralateral paw” value (Male Wistar rats [1]; day 8 (first day of re-testing)) is on record?
Its value is 66±15 % of pretreatment.

What about the “Staircase test performance, ipsilateral paw” value (Male Wistar rats [1]; during the post-treatment phase) of the same compound?
Its value is 143±18 % of pretreatment.

And the “Congo Red staining” value (Male Wistar rats [2])?
The value was “stained positively for Congo Red”.

What about the APP immunostaining signal (Male Wistar rats [3]; Corpus Callosum) of the same compound?
The APP immunostaining signal was “n.s”.

And the COX-2 immunostaining signal (Male Wistar rats [3]; Corpus Callosum)?
Its COX-2 immunostaining signal is “n.s”.

What about the GFAP immunostaining signal (Male Wistar rats [3]; Corpus Callosum) of the same compound?
Its GFAP immunostaining signal is “+”.

And the “NKκB(p65) immunostaining signal” value (Male Wistar rats [3]; Corpus Callosum)?
The value was “n.s”.

And the OX-6 immunostaining signal (Male Wistar rats [3]; Corpus Callosum)?
The OX-6 immunostaining signal was “n.s”.

What about the TNFα immunostaining signal (Male Wistar rats [3]; Corpus Callosum) of the same compound?
Its TNFα immunostaining signal is “n.s”.

And the Tau-2 immunostaining signal (Male Wistar rats [3]; Corpus Callosum)?
The Tau-2 immunostaining signal was “n.s”.

And the APP immunostaining signal (Male Wistar rats [3]; Cortex)?
Its APP immunostaining signal is “n.s”.

And the COX-2 immunostaining signal (Male Wistar rats [3]; Cortex)?
The COX-2 immunostaining signal was “n.s”.

And the GFAP immunostaining signal (Male Wistar rats [3]; Cortex)?
Its GFAP immunostaining signal is “+”.

And the “NKκB(p65) immunostaining signal” value (Male Wistar rats [3]; Cortex)?
Its value is “n.s”.

What about the OX-6 immunostaining signal (Male Wistar rats [3]; Cortex) of the same compound?
The OX-6 immunostaining signal was “n.s”.

And the TNFα immunostaining signal (Male Wistar rats [3]; Cortex)?
The TNFα immunostaining signal was “n.s”.

What about the Tau-2 immunostaining signal (Male Wistar rats [3]; Cortex) of the same compound?
Its Tau-2 immunostaining signal is “n.s”.

What about the APP immunostaining signal (Male Wistar rats [3]; Hippocampus) of the same compound?
The APP immunostaining signal was “n.s”.

What about the COX-2 immunostaining signal (Male Wistar rats [3]; Hippocampus) of the same compound?
Its COX-2 immunostaining signal is “n.s”.

And the GFAP immunostaining signal (Male Wistar rats [3]; Hippocampus)?
The GFAP immunostaining signal was “+”.

What about the “NKκB(p65) immunostaining signal” value (Male Wistar rats [3]; Hippocampus) of the same compound?
The value was “n.s”.

And the OX-6 immunostaining signal (Male Wistar rats [3]; Hippocampus)?
Its OX-6 immunostaining signal is “n.s”.

And the Tau-2 immunostaining signal (Male Wistar rats [3]; Hippocampus)?
The Tau-2 immunostaining signal was “n.s”.

And the APP immunostaining signal (Male Wistar rats [3]; Hypothalamus)?
The APP immunostaining signal was “n.s”.

And the “NKκB(p65) immunostaining signal” value (Male Wistar rats [3]; Hypothalamus)?
The value was “n.s”.

What about the TNFα immunostaining signal (Male Wistar rats [3]; Hypothalamus) of the same compound?
The TNFα immunostaining signal was “n.s”.

And the APP immunostaining signal (Male Wistar rats [3]; Striatum (right))?
Its APP immunostaining signal is “+”.

What about the COX-2 immunostaining signal (Male Wistar rats [3]; Striatum (right)) of the same compound?
The COX-2 immunostaining signal was “+”.

And the Cas-3 immunostaining signal (Male Wistar rats [3]; Striatum (right))?
Its Cas-3 immunostaining signal is “+”.

And the GFAP immunostaining signal (Male Wistar rats [3]; Striatum (right))?
Its GFAP immunostaining signal is “++”.

What about the “NKκB(p65) immunostaining signal” value (Male Wistar rats [3]; Striatum (right)) of the same compound?
The value was “+”.

What about the OX-6 immunostaining signal (Male Wistar rats [3]; Striatum (right)) of the same compound?
The OX-6 immunostaining signal was “++”.

What about the TNFα immunostaining signal (Male Wistar rats [3]; Striatum (right)) of the same compound?
Its TNFα immunostaining signal is “+”.

What about the OX-6 immunostaining signal (Male Wistar rats [3]; Thalamus (right)) of the same compound?
Its OX-6 immunostaining signal is “+”.

What about the TNFα immunostaining signal (Male Wistar rats [3]; Thalamus (right)) of the same compound?
Its TNFα immunostaining signal is “+”.

And the Tau-2 immunostaining (Male Wistar rats [3]; region of ischemic damage (right striatum))?
The Tau-2 immunostaining was “Increases”.

What about the IL-1β immunostaining (Male Wistar rats [3]; region of the infarct, punctate appearance) of the same compound?
Its IL-1β immunostaining is “Increases”.

What about the “average numbers of OX-6-stained microglia” value (Male Wistar rats [4]; CA1 of the hippocampus) of the same compound?
The value was 4.8±0.9.

And the “Average intensity measurements for GFAP” value (Male Wistar rats [4]; Hippocampus)?
Its value is 152.9±11.0.

What about the “APP Accumulation” value (Male Wistar rats [4]; Left Cortex) of the same compound?
Its value is 7.4 ± 1.4.

And the “GFAP Intensity” value (Male Wistar rats [4]; Left Hippocampus)?
Its value is 152.1 ± 4.1.

And the “OX6 Intensity” value (Male Wistar rats [4]; Left Hippocampus)?
Its value is 104.2 ± 3.5.

And the “APP Accumulation” value (Male Wistar rats [4]; Right Cortex)?
The value was 13.8 ± 1.9.

What about the “GFAP Intensity” value (Male Wistar rats [4]; Right Hippocampus) of the same compound?
The value was 166.0 ± 3.8.

What about the “OX6 Intensity” value (Male Wistar rats [4]; Right Hippocampus) of the same compound?
Its value is 116.2 ± 2.9.
